Where two headings read alike, the source gives them in different places.
Tests used:
HRV-14 = assay: Antirhinoviral H1-HeLa cell culture assay (XTT), HRV-14; format: cell-based, human rhinovirus
H1-HeLa cells = assay: Cytotoxicity in mock-infected H1-HeLa cells (antirhinoviral assay, XTT); conditions: HRV-14
[1] = target: T1, recombinant rhinovirus 3C protease, serotype 14 (Human rhinovirus 14, UniProt P03303); assay: Inhibition of rhinovirus 3C protease (FRET assay), serotype 14; format: biochemical
T1 construct: Recombinant rhinovirus 3C proteases; made in house
Procedure: (§1) Stock solutions (50 mM, in DMSO) of various compounds were prepared; dilutions were in the same solvent. Recombinant rhinovirus 3C proteases (see Birch et al., “Purification of recombinant human rhinovirus 14 3C protease expressed in Escherichia coli,” Protein Expr. Pur. (1995), vol. 6(5), 609-618) from serotypes 14, 16, and 2 were prepared by the following standard chromatographic procedures: (1) ion exchange using Q Sepharose Fast Flow from Pharmacia; (2) affinity chromatography using Affi-Gel Blue from Biorad; and (3) sizing using Sephadex G-100 from Pharmacia. Each assay sample contained 2% DMSO, 50 mM tris pH 7.6, 1 mM EDTA, a test compound at the indicated concentration, approximately 1 μM substrate, and 50-100 nM protease. The kobs/I values were obtained from reactions initiated by addition of enzyme rather than substrate. RVP activity was measured in the fluorescence resonance energy transfer assay. The substrate was (N-terminal) DABCYL-([…]-EDANS. In the uncleaved peptide, the EDANS fluorescence was quenched by the proximal DABCYL moiety. When the peptide was cleaved, the quenching was relieved, and activity was measured as an increase in fluorescence signal. The tabulated data in the column designated kobs/[I] were measured from progress curves in enzyme start experiments.

in vitro = conditions: human
[2] = target: T2, recombinant rhinovirus 3C protease, serotype 16 (Human rhinovirus 16, UniProt Q82122); assay: Inhibition of rhinovirus 3C protease (FRET assay), serotype 16; format: biochemical; conditions: HRV-16 3C protease
T2 construct: Recombinant rhinovirus 3C proteases; made in house
Procedure: as §1

[3] = target: T3, recombinant rhinovirus 3C protease, serotype 2 (Human rhinovirus 2, UniProt P04936); assay: Inhibition of rhinovirus 3C protease (FRET assay), serotype 2; format: biochemical; conditions: HRV-2 3C protease
T3 construct: Recombinant rhinovirus 3C proteases; made in house
Procedure: as §1

[4] = target: T4, rhinovirus 3C protease, HRV-89 (Human rhinovirus A serotype 89, UniProt P07210); assay: Inhibition of rhinovirus 3C protease (FRET assay), serotype 89; format: biochemical, human rhinovirus 89; conditions: HRV-89 3C protease
T4 construct: Recombinant rhinovirus 3C proteases

HRV-16 = assay: Antirhinoviral H1-HeLa cell culture assay (XTT), HRV-16; format: cell-based; conditions: Human rhinovirus sp., HRV16, HRV-16, H1-HeLa cells
Excerpt: (1989), vol. 81, 577-586.

[5] = Rhinovirus B, HRV14, HRV-14, H1-HeLa cells

T3 sequence (P04936 1508-1690): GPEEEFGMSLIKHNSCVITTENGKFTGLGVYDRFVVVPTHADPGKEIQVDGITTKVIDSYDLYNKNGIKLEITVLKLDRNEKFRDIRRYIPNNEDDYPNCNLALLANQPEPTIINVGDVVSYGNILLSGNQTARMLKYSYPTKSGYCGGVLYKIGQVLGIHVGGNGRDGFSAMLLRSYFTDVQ
T4 sequence (P07210 1522-1704): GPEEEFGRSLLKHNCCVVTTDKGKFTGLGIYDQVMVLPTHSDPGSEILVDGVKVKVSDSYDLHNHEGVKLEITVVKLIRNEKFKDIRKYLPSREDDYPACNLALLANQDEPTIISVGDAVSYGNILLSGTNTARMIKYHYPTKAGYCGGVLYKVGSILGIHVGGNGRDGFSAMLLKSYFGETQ
T1 sequence (P03303 1538-1719): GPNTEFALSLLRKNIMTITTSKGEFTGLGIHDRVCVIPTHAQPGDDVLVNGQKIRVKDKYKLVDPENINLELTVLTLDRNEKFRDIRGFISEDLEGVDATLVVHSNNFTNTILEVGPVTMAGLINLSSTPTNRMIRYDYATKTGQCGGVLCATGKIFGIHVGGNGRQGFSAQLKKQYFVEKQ
T2 sequence (Q82122 1511-1693): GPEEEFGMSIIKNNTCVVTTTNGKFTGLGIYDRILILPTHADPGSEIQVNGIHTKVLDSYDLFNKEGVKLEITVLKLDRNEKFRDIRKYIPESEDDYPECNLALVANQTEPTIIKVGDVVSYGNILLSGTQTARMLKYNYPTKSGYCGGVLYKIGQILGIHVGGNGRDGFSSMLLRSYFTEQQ

| Compound | Ki [1] [µM] | EC50 (HRV-14; [5]) [µM] | CC50 at 2 days (in vitro; mock-infected H1-HeLa cells) [µM] | other results |
| --- | --- | --- | --- | --- |
| Cc1cc(CCCCCCCOc2ccc(C3=NCCO3)cc2)on1 [WIN51711, reference compound] | – | – | – | EC50 (HRV-14; HRV-14, H1-HeLa cells): 0.78 µM; CC50 (H1-HeLa cells): > 60 µM |
| CC(C)C[C@H](NC(=O)OCc1ccccc1)C(=O)N[C@@H](Cc1ccccc1)C(=O)N[C@@H](C[C@@H]1CCNC1=O)C(=O)c1ccccc1 [Compound 26, Cbz-L-Leu-L-Phe-L-[(S)-Pyrrol-Ala]-Ph] | 3.22 | > 10 | > 10 | – |
| CSCC(=O)[C@H](CCC(N)=O)NC(=O)[C@H](Cc1ccccc1)NC(=O)[C@H](CC(C)C)NC(=O)OCc1ccccc1 [Compound 2, Cbz-L-Leu-L-Phe-L-(Gln)-CH2SCH3] | 50 | – | – | – |
| CC(=O)NC[C@H](NC(=O)[C@H](Cc1ccccc1)NC(=O)[C@H](CC(C)C)NC(=O)OCc1ccccc1)C(=O)C(=O)N1CCCCC1 [Compound 11, Cbz-L-Leu-L-Phe-L-(N-Ac-amino-Ala)-C(O)-Piperidine] | > 110 | – | – | – |
| CCOC(=O)c1ccc(OCCC2CCN(c3ccc(C)nn3)CC2)cc1 [Pirodavir, reference compound] | – | 0.03 | – | CC50 at 2 days (in vitro): > 10 µM |
| CC(=O)[C@H](C[C@@H]1CCNC1=O)NC(=O)[C@H](Cc1ccccc1)NC(=O)[C@H](CC(C)C)NC(=O)OCc1ccccc1 [Compound 24, Cbz-L-Leu-L-Phe-L-[(S)-Pyrrol-Ala]-CH3] | 0.65 | > 10 | > 10 | – |
| Cbz-L-Leu-L-Phe-L-(N-Boc-amino-Ala)-CH3 [Compound 4] | – | – | – | Ki ([1]; HRV-14 3C protease, read-out: Ki): 16.3 µM |
| CC(C)C[C@H](NC(=O)OCc1ccccc1)C(=O)N[C@@H](Cc1ccccc1)C(=O)N[C@@H](CCC(N)=O)C(=O)COC(=O)c1c(Cl)cccc1Cl [Compound 27, Cbz-L-Leu-L-Phe-L-Gln-CH2OC(O)-(2,6-dichlorophenyl)] | – | – | – | kinact/KI ([1]; pH 7.6, HRV-14 3C protease, progress curves in enzyme start experiments, read-out: kobs/[I]): 2500 M⁻¹ s⁻¹ |
| C#CC(=O)[C@H](CNC(C)=O)NC(=O)[C@H](Cc1ccccc1)NC(=O)[C@H](CNC(C)=O)NC(=O)OCc1ccccc1 [Compound 16] | 0.035 | > 100 | > 100 | – |
| CC(=O)NC[C@H](NC(=O)[C@H](Cc1ccccc1)NC(=O)[C@H](CC(C)C)NC(=O)OCc1ccccc1)C(=O)c1ccccn1 [Compound 8, Cbz-L-Leu-L-Phe-L-(N-Ac-amino-Ala)-2-Pyridine] | 80 | – | – | – |
| COCC#CC(=O)[C@H](CNC(C)=O)NC(=O)[C@H](Cc1ccccc1)NC(=O)[C@H](CC(C)C)NC(=O)OCc1ccccc1 [Compound 17, Cbz-L-Leu-L-Phe-L-(N-Ac-amino-AIa)-C≡CCH2OCH3] | 0.075 | > 100 | > 100 | – |
| C=CC(=O)[C@H](CNC(C)=O)NC(=O)[C@H](Cc1ccccc1)NC(=O)[C@H](CC(C)C)NC(=O)OCc1ccccc1 [Compound 15, Cbz-L-Leu-L-Phe-L-(N-Ac-amino-Ala)-CH=CH2] | 0.098 | > 100 | > 100 | – |
| Cc1cc(CCCCCCCOc2ccc(C3=N[C@@H](C)CO3)cc2)on1 [WIN52084, reference compound] | – | – | – | EC50 (HRV-14; HRV-14, H1-HeLa cells): 0.07 µM; CC50 (H1-HeLa cells): > 10 µM |
| CC(C)C[C@H](NC(=O)OCc1ccccc1)C(=O)N[C@@H](Cc1ccccc1)C(=O)N[C@@H](C[C@@H]1CCNC1=O)C(=O)c1ccccn1 [Compound 23, Cbz-L-Leu-L-Phe-L-[(S)-Pyrrol-Ala]-2-Pyridine] | 0.17 | 4 | 200 | – |
| CC(=O)NC[C@@H](NC(=O)[C@H](Cc1ccccc1)NC(=O)[C@H](CC(C)C)NC(=O)OCc1ccccc1)C(=O)C(=O)N1CCCCC1 [Compound 12, Cbz-L-Leu-L-Phe-D-(N-Ac-amino-Ala)-C(O)-Piperidine] | 10.7 | 39 | – | – |
| Cc1cc(CCCCCOc2c(Cl)cc(C3=NCCO3)cc2Cl)on1 [WIN54954, reference compound] | – | – | – | EC50 (HRV-14; HRV-14, H1-HeLa cells): 2.13 µM; CC50 (H1-HeLa cells): > 63 µM |

| Compound | Ki [1] [µM] | EC50 (HRV-14; [5]) [µM] | CC50 at 2 days (in vitro; mock-infected H1-HeLa cells) [µM] | other results |
| --- | --- | --- | --- | --- |
| CC(C)C[C@H](NC(=O)OCc1ccccc1)C(=O)N[C@@H](Cc1ccccc1)C(=O)N[C@@H](C[C@@H]1CCNC1=O)C(=O)c1nc2ccccc2s1 [Compound 21, Cbz-L-Leu-L-Phe-L-[(S)-Pyrrol-Ala]-2-Benzthiazole] | 0.065 | 3.2 | > 320 | melting point: 108 to 111 °C |
| Cc1cc(CCCOc2c(C)cc(-c3noc(C(F)(F)F)n3)cc2C)on1 [Pleconaril, reference compound] | – | 0.01 | > 10 | – |
| CC(C)C[C@H](NC(=O)OCc1ccccc1)C(=O)N[C@@H](Cc1ccccc1)C(=O)N[C@@H](C[C@@H]1CCNC1=O)C(=O)c1cc2ccccc2s1 [Compound 25, Cbz-L-Leu-L-Phe-L-[(S)-Pyrrol-Ala]-2-Benzothiophene] | 4.7 | > 10 | > 10 | – |
| CC(C)C[C@H](NC(=O)OCc1ccccc1)C(=O)N[C@@H](Cc1ccccc1)C(=O)N[C@@H](C[C@@H]1CCNC1=O)C(=O)c1nccs1 [Compound 22, Cbz-L-Leu-L-Phe-L-[(S)-Pyrrol-Ala]-2-Thiazole] | 0.7 | 7.9 | 240 | melting point: 83 to 85 °C |
| CC(=O)NC[C@H](NC(=O)[C@H](Cc1ccccc1)NC(=O)[C@H](CC(C)C)NC(=O)OCc1ccccc1)C(=O)COC(=O)c1c(C)cc(C)cc1C [Compound 3, Cbz-L-Leu-L-Phe-L-(N-Ac-amino-Ala)-CH2OC(O)-(2,4,6-trimethylphenyl)] | – | > 25 | 25 | kobs/[I] ([1]; HRV-14 3C protease, progress curves in enzyme start experiments): slow |
| CC(=O)NC[C@H](NC(=O)[C@H](Cc1ccccc1)NC(=O)[C@H](CC(C)C)NC(=O)OCc1ccccc1)C(=O)c1nc2ccccc2s1 [Compound 9, Cbz-L-Leu-L-Phe-L-(N-Ac-amino-Ala)-2-Benzthiazole] | 1.7 | > 25 | 25 | Ki [2]: 0.31 µM; Ki [3]: 0.9 µM; Ki [4]: 0.48 µM; EC50 (HRV-16): > 25 µM |
| CC(C)C[C@H](NC(=O)OCc1ccccc1)C(=O)N[C@@H](Cc1ccccc1)C(=O)N[C@@H](CCC(N)=O)C(=O)c1nc2ccccc2s1 [Compound 20, Cbz-L-Leu-L-Phe-L-Gln-2-Benzthiazole] | 3.5 | 17.4 | > 100 | – |
| CNC(=O)C(=O)[C@H](CNC(C)=O)NC(=O)[C@H](Cc1ccccc1)NC(=O)[C@H](CC(C)C)NC(=O)OCc1ccccc1 [Compound 10, Cbz-L-Leu-L-Phe-L-(N-Ac-amino-Ala)-C(O)NHCH3] | 20 | 251 | > 320 | – |
| CC(=O)NC[C@H](NC(=O)[C@H](Cc1ccccc1)NC(=O)[C@H](CC(C)C)NC(=O)OCc1ccccc1)C(=O)c1nccs1 [Compound 13, Cbz-L-Leu-L-Phe-L-(N-Ac-amino-Ala)-2-Thiazole] | 24 | > 56 | 56 | Ki [2]: 4 µM; Ki [3]: 13.3 µM |
| CSCC(=O)[C@H](CCC(=O)NC(c1ccccc1)(c1ccccc1)c1ccccc1)NC(=O)[C@H](Cc1ccccc1)NC(=O)[C@H](CC(C)C)NC(=O)OCc1ccccc1 [Compound 1, Cbz-L-Leu-L-Phe-L-(Tr-Gln)-CH2SCH3] | 9 | – | – | – |
| COCC(=O)[C@H](CNC(C)=O)NC(=O)[C@H](Cc1ccccc1)NC(=O)[C@H](CC(C)C)NC(=O)OCc1ccccc1 [Compound 19, Cbz-L-Leu-L-Phe-L-(N-Ac-amino-Ala)-CH2OCH3] | 27 | – | – | Ki [2]: 27 µM; Ki [3]: 12.9 µM; Ki [4]: 20.6 µM |
| CC(C)C[C@H](NC(=O)OCc1ccccc1)C(=O)N[C@@H](Cc1ccccc1)C(=O)N[C@@H](CNC(=O)OC(C)(C)C)C(=O)c1nc2ccccc2s1 [Compound 6, Cbz-L-Leu-L-Phe-L-(N-Boc-amino-Ala)-2-Benzthiazole] | 4.8 | – | – | – |
| CC(=O)NC[C@H](NC(=O)[C@H](Cc1ccccc1)NC(=O)[C@H](CC(C)C)NC(=O)OCc1ccccc1)C(C)=O [Compound 5, Cbz-L-Leu-L-Phe-L-(N-Ac-amino-Ala)-CH3] | 138 | – | – | – |
| CC(=O)NC[C@H](NC(=O)[C@H](Cc1ccccc1)NC(=O)[C@H](CC(C)C)NC(=O)OCc1ccccc1)C(=O)COCCc1ccccc1 [Compound 18, Cbz-L-Leu-L-Phe-L-(N-Ac-amino-Ala)-CH2OCH2CH2Ph] | 9.1 | > 20 | 20 | Ki [2]: 6.7 µM; Ki [3]: 11 µM; Ki [4]: 14 µM |
| CC(C)C[C@H](NC(=O)OCc1ccccc1)C(=O)N[C@@H](Cc1ccccc1)C(=O)N[C@@H](CNC(=O)OC(C)(C)C)C(=O)c1ccccn1 [Compound 7, Cbz-L-Leu-L-Phe-L-(N-Boc-amino-Ala)-2-Pyridine] | 71 | – | – | – |
